EPA's ToxValDB 9.5 (doi:10.2903/j.efsa.2014.3560)
Converted amounts (≈) assume the structure as drawn.

Legend:
Rattus norvegicus = conditions: for NOAEL: reproduction developmental; for LD50: acute, oral, mortality
Apis mellifera = conditions: acute, duration: 48 hours, mortality
Bibionidae = conditions: chronic/long-term; duration: 28 days; M/F; development
Canidae = conditions: chronic; duration: 1 years; oral; Dog Other; clinical signs
Colinus virginianus = conditions: acute, oral, mortality
Lepomis macrochirus = conditions: acute; duration: 96 hours; mortality
Pimephales promelas = conditions: chronic/long-term
Aphidius rhopalosiphi = assay: LR50; higher = less toxic; conditions: not reported; mortality
Typhlodromus pyri = assay: LR50; higher = less toxic; conditions: chronic/long-term; duration: 7 days; mortality

SMILES	NOAEL (Rattus norvegicus) [mg/kg-day]	NOAEL (Rattus norvegicus; body weight) [mg/kg-day]	LD50 (Anas platyrhynchos; short-term, oral, feed, mortality) [mg/kg-day]	LD50 (Apis mellifera; dermal) [µg/piece]	LD50 (Apis mellifera; oral, unspecified) [µg/piece]	NOEC (Bibionidae) [µg/L]	NOAEL (Canidae) [mg/kg-day]	LD50 (Colinus virginianus; diet) [mg/kg-day]	LD50 (Colinus virginianus) [mg/kg-day]	LC50 (Lepomis macrochirus) [ng/mL]	NOEC (Pimephales promelas) [µg/L]	LD50 (Rattus norvegicus; F) [mg/kg-day]	LD50 (Rattus norvegicus; M) [mg/kg-day]	LC50 (Tagia sp.; acute, duration: 14 days, mortality) [mg/kg]	NOEC (Tagia sp.; chronic/long-term, reproduction) [mg/kg]	LR50 (Aphidius rhopalosiphi) [g/ha]	LR50 (Typhlodromus pyri) [g/ha]	NOEC (Anas platyrhynchos; reproductive, reproduction) [mg/kg-day]
CC1(C)C(C=C(Cl)C(F)(F)F)C1C(=O)OC(C#N)c1cccc(Oc2ccccc2)c1 (stereo not drawn) [alpha-Cyhalothrin]	0.125	0.5	–	–	–	–	–	–	–	–	–	–	–	–	–	–	–	–
CC1(C)[C@H](C(=O)O[C@H](C#N)c2cccc(Oc3ccccc3)c2)[C@@H]1/C=C(\Cl)C(F)(F)F [gamma-Cyhalothrin]	–	0.5	> 429	0.005	4.2	0.0469	0.5	225	> 2000	0.0354 (≈ 0.0787 nM)	0.0155	> 55	> 50	> 1300	0.5	0.23	0.0006	–
CC1(C)[C@H](/C=C(\Cl)C(F)(F)F)[C@@H]1C(=O)O[C@@H](C#N)c1cccc(Oc2ccccc2)c1 [lambda-Cyhalothrin]	–	–	–	–	–	–	0.5	–	–	–	–	–	–	–	–	–	–	1.35
